According to ChEMBL document CHEMBL1201862, “PubChem BioAssay data set” (2004):
Several values for one entry are separate records, joined by “and”; a condition that tells them apart may be missing. Identical values can stand only once.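 96-well plates; 48 h exposure; 5 concentrations. Endpoints by linear interpolation between flanking doses. Not reached: highest tested concentration assigned. Here, GI50 denotes the concentration required for 50% inhibition of growth.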 Activity calls are given as the source filed them. No stated cut-off is given here; in the data, active = GI50 up to about 1.1 µM and inactive = higher.

What was measured:
Experiment in all cases: inhibition of tumour cell growth, NCI panel, 48 h
[1] = tested on: Hs-578T
[2] = tested on: SN12C
[3] = tested on: SK-MEL-5
[4] = tested on: MOLT-4
[5] = tested on: NCI-H460
[6] = tested on: OVCAR-8
[7] = tested on: UACC-257
[8] = tested on: HL-60
[9] = tested on: K562
[10] = tested on: SK-OV-3
[11] = tested on: PC-3
[12] = tested on: SF-539
[13] = tested on: SK-MEL-2
[14] = tested on: MDA-MB-231
[15] = tested on: Malme-3M
[16] = tested on: M14
[17] = tested on: CAKI-1
[18] = tested on: HOP-92
[19] = tested on: BT-549

Measured: GI50

N#Cc1[nH]c(=O)n(-c2ccccc2)c1N
inactive: [1] > 10 µM | [2] > 10 µM | [3] > 10 µM | [4] > 10 µM | [5] > 10 µM | [6] > 10 µM | [7] > 10 µM | [8] > 10 µM | [9] > 10 µM | [10] > 10 µM | [11] > 10 µM | [12] > 10 µM | [13] > 10 µM | [14] > 10 µM | [15] > 10 µM | [16] > 10 µM

CC1CC/C(=C\c2ccc(F)cc2)C2=C1C(c1ccc(F)cc1)n1c(s/c(=C/c3cccc(Br)c3)c1=O)=N2 (configuration not stated)
inactive: [1] > 100 µM | [2] > 100 µM | [3] > 100 µM | [4] > 100 µM | [6] > 100 µM | [7] > 100 µM | [17] > 100 µM | [8] > 100 µM | [9] > 100 µM | [10] > 100 µM | [18] > 100 µM | [11] > 100 µM | [13] > 100 µM | [14] > 100 µM | [16] > 100 µM

O=[N+]([O-])c1ccc(-c2nn3c(C45CC6CC(CC(C6)C4)C5)nnc3s2)c(Cl)c1
inactive: [1] > 100 µM | [2] > 100 µM | [3] > 100 µM | [4] > 100 µM | [5] > 100 µM | [6] > 100 µM | [17] > 100 µM | [8] > 100 µM | [9] > 100 µM | [10] > 100 µM | [18] > 100 µM | [11] > 100 µM | [12] > 100 µM | [13] > 100 µM | [14] > 100 µM | [15] > 100 µM | [16] > 100 µM

CC(=O)c1c(O)nnc(-c2ccc(Cl)cc2)c1-c1ccc(Cl)cc1
inactive: [1] 53.1 µM | [2] 22.3 µM | [3] 29 µM | [4] 48.5 µM | [5] 33 µM | [6] 31.5 µM | [7] 39 µM | [17] 31.8 µM | [8] 25 µM | [9] 30.4 µM | [10] 40.8 µM | [18] 52.7 µM | [11] 37.4 µM | [12] 22.7 µM | [13] 25.1 µM | [14] 21.2 µM | [15] 28.5 µM | [16] 65.6 µM

COC(=O)[C@@H]1C[C@H]2[C@H](c3ccccc3Br)[C@@H](OC(C)=O)[C@@H](OCc3ccccc3)ON2O1
inactive: [2] > 100 µM | [3] > 100 µM | [4] 45.3 µM | [5] 92.3 µM | [6] > 100 µM | [7] > 100 µM | [17] > 100 µM | [19] > 100 µM | [9] > 100 µM | [10] > 100 µM | [11] > 100 µM | [12] > 100 µM | [13] 69.2 µM | [14] > 100 µM | [16] > 100 µM

CCOC(=O)c1nc(SC)sc1NC(=O)c1ccc(OC)cc1
inactive: [1] > 100 µM | [2] 37.9 µM | [3] > 100 µM | [4] > 100 µM | [5] 35.6 µM | [6] 58.7 µM | [7] > 100 µM | [17] > 100 µM | [8] > 100 µM | [9] > 100 µM | [10] 63.1 µM | [18] > 100 µM | [11] > 100 µM | [12] 16.4 µM | [13] > 100 µM | [14] 35.2 µM | [15] 35.3 µM | [16] > 100 µM

COc1cc(C2C(Cl)C(=O)N2c2c(C)n(C)n(-c3ccccc3)c2=O)ccc1O (configuration not stated)
inactive: [2] 19.1 µM | [3] 23.2 µM | [4] 15.1 µM | [5] 23.6 µM | [6] 19.4 µM | [7] 16.4 µM | [17] 33.6 µM | [8] 23.3 µM | [19] 20.1 µM | [9] 26.6 µM | [10] 29.6 µM | [18] 21.3 µM | [11] 28.8 µM | [12] 16.3 µM | [13] 20.3 µM | [14] 22.1 µM | [15] 28.3 µM | [16] 15.7 µM

COc1cc(-c2c(C(C)=O)c(-c3ccccc3)n(C3OC(COC(C)=O)C(OC(C)=O)C(OC(C)=O)C3OC(C)=O)c(=S)c2C#N)ccc1O (configuration not stated)
inactive: [1] 70.6 µM | [2] > 100 µM | [3] 37.2 µM and 72.4 µM | [4] 58.9 µM and 60.1 µM | [5] 75.5 µM | [17] > 100 µM | [19] 33.1 µM | [9] > 100 µM | [18] 36.6 µM | [11] 46.8 µM and 65.6 µM | [16] > 100 µM

CC(=O)Nc1oc(C)c(C)c1S(=O)(=O)c1ccc(Cl)cc1
inactive: [1] 33.4 µM | [3] 27.8 µM | [4] 39.4 µM | [5] 35.7 µM | [6] 45.7 µM | [7] 41 µM | [8] 97.7 µM | [19] 29.2 µM | [9] 77.1 µM | [10] 52.5 µM | [18] > 100 µM | [11] 22.1 µM | [12] 26.7 µM | [13] 28.4 µM | [15] 40.2 µM | [16] 63.8 µM

Cc1ccc(C(=O)O)c(/C=C2\Cc3ccc(C)cc3C2=O)c1
inactive: [1] 64.3 µM | [2] 40.6 µM | [3] 25.1 µM | [4] 33.6 µM | [5] 56.4 µM | [6] 61.5 µM | [7] 78.5 µM | [17] 44.3 µM | [8] 28.6 µM | [19] 12.9 µM | [9] 39.9 µM | [18] > 100 µM | [11] 48.8 µM | [12] 20 µM | [13] 32 µM | [15] 95.9 µM | [16] > 100 µM

CCOC(=O)/C=C/C(=O)O/C=C/[N+](=O)[O-]
inactive: [1] > 100 µM | [2] > 100 µM | [3] > 100 µM | [4] > 100 µM | [5] > 100 µM | [6] > 100 µM | [7] > 100 µM | [17] 33.3 µM | [8] > 100 µM | [10] > 100 µM | [18] > 100 µM | [12] > 100 µM | [14] > 100 µM | [16] > 100 µM

COc1ccc(C[C@H]2COC(=O)[C@@H]2Cc2ccccc2)cc1OC
inactive: [1] > 100 µM | [2] > 100 µM | [3] > 100 µM | [4] > 100 µM | [5] > 100 µM | [6] > 100 µM | [7] > 100 µM | [9] > 100 µM | [10] > 100 µM | [11] > 100 µM | [14] > 100 µM | [15] > 100 µM
